Assay results reported in patent publication US20250002453A1, “PHARMACEUTICALLY ACCEPTABLE SALT OF ELIGLUSTAT AND CRYSTAL FORM THEREOF” (SPEROGENIX (SHANGHAI) MEDTECH CO., LTD., priority 2021, published 2025).
Entries after “also recorded” stand apart in the source; their conditions may differ. Read-outs that look alike come from different tables or passages of the source.

Tests used:
[1] = as described in WO2011066352A1; cited from earlier work
[2] = Evaluation of hygroscopicity by Dynamic Vapor Sorption (DVS); type: physicochemical; settings: for Transformation of crystalline form: after DVS test
Experimental: Dynamic Vapor Sorption (DVS) profiles are collected on the DVS Intrinsic of SMS (Surface Measurement Systems). Relative humidity at 25° C. is corrected with the deliquescent points of LiCl, Mg(NO3)2 and KCl.
The hygroscopicity of crystalline form B/crystalline form C of 1,5-naphthalene disulfonate, crystalline form A of oxalate, crystalline form A of tartrate and free crystalline form A were evaluated by DVS.

[3] = Dynamic solubility test (water, SGF, FaSSIF, FeSSIF; 37° C.; 1, 4 and 24 hours); type: physicochemical; settings: 37° C.; for FC: Crystalline form transformation: XRPD of residual solid
Experimental: 0.2 g sodium chloride and 0.1 g Triton X-100 are weighted into a 100 mL volumetric flask. Pure water is added for dissolution, stirred until the solid is completely dissolved, about 1.632 mL hydrochloric acid (1M) is added, and the pH is adjusted to 1.8 with 1M hydrochloric acid or 1M sodium hydroxide, and finally it is diluted to volume with pure water.
0.34 g sodium dihydrogen phosphate (NaH2PO4, anhydrous), 0.042 g sodium hydroxide, and 0.62 g sodium chloride are weighted respectively into a 100 mL volumetric flask, about 48 mL pure water is added for dissolution, the pH is adjusted to 6.5 with 1M hydrochloric acid or 1M sodium hydroxide, and finally it is diluted to volume with pure water to obtain a stock solution. A 50-mL volumetric flask is taken. 0.11 g of SIF powder is added, and dissolved with the above stock solution, then diluted to volume. The powder is completely dissolve by ultrasound.
(§1) The purity test, dynamic solubility and stability test in the experiment are completed by Agilent 1260 high performance liquid chromatography. The salt-forming molar ratio test of ions is completed by ion chromatography test.
The dynamic solubility of crystalline form B/crystalline form C of 1,5-naphthalene disulfonate, crystalline form A of oxalate, crystalline form A of tartrate and free crystalline form A in water and three biological solvents were evaluated.
After sampling at each time point, the samples were centrifugally filtered (0.45 μm PTFE filter head), the free salt concentration and pH value in the filtrate were measured, and the solid samples after centrifugation were tested for XRPD.

[4] = Solid state stability assessment (XRPD and HPLC after exposure at 25° C./60% RH and 40° C./75% RH); type: physicochemical; settings: left exposed for 4 weeks at 25° C./60% RH and 40° C./75% RH
Experimental: XRPD patterns are collected on an X-ray powder diffraction analyzer produced by PANalytacal, and Table 2 lists the XRPD parameters.
as §1
After leaving the crystalline form C of 1,5-naphthalene disulfonate in the exposure evaporation at 25° C./60% RH and 40° C./75% RH for 1 week, […] and 4 weeks. The physical and chemical stability of the sample was tested by XRPD and HPLC, and the stability data of crystalline form A of tartrate and free crystalline form A at 1 week, 2 weeks and 4 weeks were used as a reference. At the same time, the stability of crystalline form B of 1,5-naphthalene disulfonate and crystalline form A of oxalate was tested under the conditions of 25° C./60% RH and 40° C./75% RH for 1 week.

[5] = plasma concentration of eliglustat 500 ng/ml; cited from earlier work
[6] = Deliquescence / moisture uptake observed under room humidity or during XRPD testing; type: physicochemical; settings: under room humidity conditions
Experimental: Free crystalline form A and 0.5 equivalent of L-malic acid were suspended and stirred in EtOAc for 1 day at room temperature to obtain the sample. The solid was separated by centrifugation and dried under vacuum to obtain crystalline form A of malate.
Free crystalline form A and 0.5 equivalent of L-malic acid were suspended and stirred in IPAc/n-heptane (1:5, v:v) for 1 day at room temperature and 2 days at 40° C., and then the solid was separated by centrifugation. Upon vacuum drying, crystalline form B of malate was obtained.

SMILES | Hygroscopic weight gain at 25° C./80% RH ([2]; DVS, 25° C./80% RH) [%] | S: Solubility (free concentration) ([3]; FaSSIF, 1 hr) [mg/mL] | pH (of filtrate) ([3]; FaSSIF, 1 hr) | FC: Crystalline form transformation ([3]; FaSSIF, 1 hr) | S: Solubility (free concentration) ([3]; FaSSIF, 4 hrs) [mg/mL] | pH (of filtrate) ([3]; FaSSIF, 4 hrs) | FC: Crystalline form transformation ([3]; FaSSIF, 4 hrs) | S: Solubility (free concentration) ([3]; FaSSIF, 12 hrs) [mg/mL] | pH (of filtrate) ([3]; FaSSIF, 12 hrs) | FC: Crystalline form transformation ([3]; FaSSIF, 12 hrs) | S: Solubility (free concentration) ([3]; H2O, 1 hr) [mg/mL] | pH (of filtrate) ([3]; H2O, 1 hr) | FC: Crystalline form transformation ([3]; H2O, 1 hr) | S: Solubility (free concentration) ([3]; H2O, 4 hrs) [mg/mL] | pH (of filtrate) ([3]; H2O, 4 hrs) | FC: Crystalline form transformation ([3]; H2O, 4 hrs) | S: Solubility (free concentration) ([3]; H2O, 12 hrs) [mg/mL] | pH (of filtrate) ([3]; H2O, 12 hrs) | hygroscopicity (in words) [1] | Transformation of crystalline form [2] | further results
CCCCCCCC(=O)NC(CN1CCCC1)C(O)c1ccc2c(c1)OCCO2.O=C(O)C(O)C(O)C(=O)O (centres unmarked) [1:1 tartrate salt] | – | – | – | – | – | – | – | – | – | – | – | – | – | – | – | – | – | – | too hygroscopic for formulation | – | –
CCCCCCCC(=O)N[C@H](CN1CCCC1)[C@H](O)c1ccc2c(c1)OCCO2 [eliglustat] | – | – | – | – | – | – | – | – | – | – | – | – | – | – | – | – | – | – | – | – | predicted mean increase in PR interval [5]: 22 (26) milliseconds; predicted mean increase in QRS interval [5]: 7 (10) milliseconds; predicted mean increase in QTcF interval [5]: 13 (19) milliseconds
CCCCCCCC(=O)N[C@H](CN1CCCC1)[C@H](O)c1ccc2c(c1)OCCO2.Cl [hydrochloride salt] | – | – | – | – | – | – | – | – | – | – | – | – | – | – | – | – | – | – | too hygroscopic for formulation | – | –
CCCCCCCC(=O)NC(CN1CCCC1)C(O)c1ccc2c(c1)OCCO2.O=C(O)CC(O)C(=O)O (centres unmarked) [Crystalline form A of malate] | – | – | – | – | – | – | – | – | – | – | – | – | – | – | – | – | – | – | – | – | deliquescence / moisture absorption [6]: deliquesced significantly

Further lines, with some results ahead:

Hygroscopic weight gain at 25° C./80% RH ([2]; DVS, 25° C./80% RH) [%] | S: Solubility (free concentration) ([3]; FaSSIF, 1 hr) [mg/mL] | pH (of filtrate) ([3]; FaSSIF, 1 hr) | FC: Crystalline form transformation ([3]; FaSSIF, 1 hr) | S: Solubility (free concentration) ([3]; FaSSIF, 4 hrs) [mg/mL] | pH (of filtrate) ([3]; FaSSIF, 4 hrs) | FC: Crystalline form transformation ([3]; FaSSIF, 4 hrs) | S: Solubility (free concentration) ([3]; FaSSIF, 12 hrs) [mg/mL] | pH (of filtrate) ([3]; FaSSIF, 12 hrs) | FC: Crystalline form transformation ([3]; FaSSIF, 12 hrs) | S: Solubility (free concentration) ([3]; H2O, 1 hr) [mg/mL] | pH (of filtrate) ([3]; H2O, 1 hr) | FC: Crystalline form transformation ([3]; H2O, 1 hr) | S: Solubility (free concentration) ([3]; H2O, 4 hrs) [mg/mL] | pH (of filtrate) ([3]; H2O, 4 hrs) | FC: Crystalline form transformation ([3]; H2O, 4 hrs) | S: Solubility (free concentration) ([3]; H2O, 12 hrs) [mg/mL] | pH (of filtrate) ([3]; H2O, 12 hrs) | SMILES | hygroscopicity (in words) [1] | Transformation of crystalline form [2] | further results
0.33 | 2.9 | 6.48 | No | 2.8 | 6.48 | No | 3.0 | 6.49 | No | 2.0 | 7.39 | No | 1.9 | 7.33 | No | 2.0 | 7.45 | CCCCCCCC(=O)N[C@H](CN1CCCC1)[C@H](O)c1ccc2c(c1)OCCO2.CCCCCCCC(=O)N[C@H](CN1CCCC1)[C@H](O)c1ccc2c(c1)OCCO2.O.O.O=S(=O)(O)c1cccc2c(S(=O)(=O)O)cccc12 | – | No change | hygroscopic weight gain at 25° C./80% RH ([2]; DVS, 25° C./80% RH): 0.33 wt %; Transformation of crystalline form ([2]; listed as crystalline form C of 1,5-naphthalene disulfonate): no change in crystalline form; FC: Crystalline form transformation ([3]; H2O, 12 hrs): No; S: Solubility (free concentration) ([3]; SGF, 1 hr): 2.6 mg/mL; pH (of filtrate) ([3]; SGF, 1 hr): 1.80; FC: Crystalline form transformation ([3]; SGF, 1 hr): No; S: Solubility (free concentration) ([3]; SGF, 4 hrs): 2.4 mg/mL; pH (of filtrate) ([3]; SGF, 4 hrs): 1.88; FC: Crystalline form transformation ([3]; SGF, 4 hrs): No; S: Solubility (free concentration) ([3]; SGF, 12 hrs): 2.6 mg/mL; pH (of filtrate) ([3]; SGF, 12 hrs): 1.89; FC: Crystalline form transformation ([3]; SGF, 12 hrs): No; change in crystalline form (XRPD) [4]: no change in crystalline form; decrease in HPLC purity [4]: no change in crystalline form or decrease in HPLC purity was observed
0.01 | 4.4 | 7.31 | No | 4.4 | 7.29 | No | 4.2 | 7.30 | No | 0.12 | 9.24 | No | 0.13 | 9.03 | No | 0.17 | 8.80 | CCCCCCCC(=O)N[C@H](CN1CCCC1)[C@H](O)c1ccc2c(c1)OCCO2 [Free crystalline form A, reference compound] | – | did not change in crystalline form; also recorded: No change | hygroscopicity (in words) ([2]; DVS): almost no hygroscopicity; FC: Crystalline form transformation ([3]; H2O, 12 hrs): No; S: Solubility (free concentration) ([3]; SGF, 1 hr): 6.6 mg/mL; pH (of filtrate) ([3]; SGF, 1 hr): 7.27; FC: Crystalline form transformation ([3]; SGF, 1 hr): No; S: Solubility (free concentration) ([3]; SGF, 4 hrs): 6.7 mg/mL; pH (of filtrate) ([3]; SGF, 4 hrs): 7.26; FC: Crystalline form transformation ([3]; SGF, 4 hrs): No; S: Solubility (free concentration) ([3]; SGF, 12 hrs): 6.5 mg/mL; pH (of filtrate) ([3]; SGF, 12 hrs): 7.30; FC: Crystalline form transformation ([3]; SGF, 12 hrs): No; change in crystalline form (XRPD) [4]: no change in crystalline form; decrease in HPLC purity [4]: no change in crystalline form or decrease in HPLC purity was observed
